Patent EP4722201A1, “3-PHENYLISOXAZOLINE-5-CARBOXAMIDE COMPOUND, AND PREPARATION METHOD THEREFOR, HERBICIDAL COMPOSITION THEREOF AND USE THEREOF” (Jiangsu Flag Chemical Industry Co., Ltd, priority 2023, dated 2024)

What was measured:
Assay in all cases: Indoor herbicide activity determination, Seed Treatment; pre-emergence (soil spray)
Format in all cases: in vivo
Aegilops tauschii = settings: read-out: Herbicidal activities (inhibition rate) Aegilops tauschii; for inhibition at 60 g/ha: 60 g a.i./ha; for inhibition at 120 g/ha: 120 g a.i./ha
In short: (§1)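 Pre-emergence soil spray; sandy soil pH 6.1, OM 1%, 7 cm pots; seeds covered, wetted from below, 24 h incubation under light at constant temperature; spray tower, 300 mm height, 390 mL/min nozzle flow; readout = % fresh-weight inhibition vs control at 21 d.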

Alopecurus japonicus = system: Alopecurus japonicus
In short: as §1

Alopecurus myosuroides = system: Alopecurus myosuroides
In short: as §1

Cyperus iria = settings: read-out: Herbicidal activities (inhibition rate) Cyperus iria; for inhibition at 120 g/ha: 120 g a.i./ha
In short: as §1

Digitaria sanguinalis = settings: read-out: Herbicidal activities (inhibition rate) Digitaria sanguinalis; for inhibition at 60 g/ha: 60 g a.i./ha; for inhibition at 120 g/ha: 120 g a.i./ha
In short: as §1

Eleusine indica = settings: for Herbicidal activities, Eleusine indica (inhibition rate class): Dosage 120 g a.i./ha
In short: as §1

Leptochloa chinensis = system: Leptochloa chinensis
In short: as §1

Lolium multiflorum = system: Lolium multiflorum
In short: as §1

Eclipta prostrata = settings: 120 g a.i./ha, read-out: Herbicidal activities (inhibition rate) Eclipta prostrata
In short: as §1

SMILES: C=C[C@]1(C(=O)N[C@H]2C[C@@H](C(=O)O[C@H](C)COC)C2)CC(c2cc(F)cc(F)c2)=NO1 [I-19]
- inhibition at 60 g/ha (Aegilops tauschii): 80 to 100%
- Herbicidal activities, Alopecurus japonicus (inhibition rate class) (Alopecurus japonicus; Dosage 120 g a.i./ha): A (A indicates that the inhibition rate was greater than or equal to 80% to 100%)
- Herbicidal activities, Alopecurus myosuroides (inhibition rate class) (Alopecurus myosuroides; Dosage 120 g a.i./ha): A (A indicates that the inhibition rate was greater than or equal to 80% to 100%)
- inhibition at 60 g/ha (Cyperus iria; 60 g a.i./ha): 60 to 80%
- inhibition at 60 g/ha (Digitaria sanguinalis): 80 to 100%
- Herbicidal activities, Eleusine indica (inhibition rate class) (Eleusine indica): A (A indicates that the inhibition rate was greater than or equal to 80% to 100%)
- Herbicidal activities, Leptochloa chinensis (inhibition rate class) (Leptochloa chinensis; Dosage 120 g a.i./ha): A (A indicates that the inhibition rate was greater than or equal to 80% to 100%)
- Herbicidal activities, Lolium multiflorum (inhibition rate class) (Lolium multiflorum; Dosage 120 g a.i./ha): A (A indicates that the inhibition rate was greater than or equal to 80% to 100%)

SMILES: CC[C@@H](C)OC(=O)[C@H]1C[C@@H](NC(=O)[C@@]2(C)CC(c3cc(F)cc(F)c3)=NO2)C1 [I-128]
- inhibition at 60 g/ha (Aegilops tauschii): 80 to 100%
- Herbicidal activities, Alopecurus japonicus (inhibition rate class) (Alopecurus japonicus; Dosage 120 g a.i./ha): A (A indicates that the inhibition rate was greater than or equal to 80% to 100%)
- Herbicidal activities, Alopecurus myosuroides (inhibition rate class) (Alopecurus myosuroides; Dosage 120 g a.i./ha): A (A indicates that the inhibition rate was greater than or equal to 80% to 100%)
- inhibition at 60 g/ha (Digitaria sanguinalis): 60 to 80%
- Herbicidal activities, Eleusine indica (inhibition rate class) (Eleusine indica): A (A indicates that the inhibition rate was greater than or equal to 80% to 100%)
- Herbicidal activities, Leptochloa chinensis (inhibition rate class) (Leptochloa chinensis; Dosage 120 g a.i./ha): A (A indicates that the inhibition rate was greater than or equal to 80% to 100%)
- Herbicidal activities, Lolium multiflorum (inhibition rate class) (Lolium multiflorum; Dosage 120 g a.i./ha): A (A indicates that the inhibition rate was greater than or equal to 80% to 100%)

SMILES: CC[C@H](C)OC(=O)[C@H]1C[C@@H](NC(=O)[C@@]2(C)CC(c3cc(F)cc(F)c3)=NO2)C1 [I-129]
- inhibition at 60 g/ha (Aegilops tauschii): 80 to 100%
- Herbicidal activities, Alopecurus japonicus (inhibition rate class) (Alopecurus japonicus; Dosage 120 g a.i./ha): A (A indicates that the inhibition rate was greater than or equal to 80% to 100%)
- Herbicidal activities, Alopecurus myosuroides (inhibition rate class) (Alopecurus myosuroides; Dosage 120 g a.i./ha): A (A indicates that the inhibition rate was greater than or equal to 80% to 100%)
- inhibition at 60 g/ha (Digitaria sanguinalis): 60 to 80%
- Herbicidal activities, Eleusine indica (inhibition rate class) (Eleusine indica): A (A indicates that the inhibition rate was greater than or equal to 80% to 100%)
- Herbicidal activities, Leptochloa chinensis (inhibition rate class) (Leptochloa chinensis; Dosage 120 g a.i./ha): B (B indicates that the inhibition rate was greater than or equal to 60% to less than 80%)
- Herbicidal activities, Lolium multiflorum (inhibition rate class) (Lolium multiflorum; Dosage 120 g a.i./ha): A (A indicates that the inhibition rate was greater than or equal to 80% to 100%)

SMILES: COC(=O)[C@@H]1C=C[C@H](NC(=O)C2(C)CC(c3cc(F)cc(OC(F)(F)F)c3)=NO2)C1 (stereo partly drawn) [I-489]
- inhibition at 120 g/ha (Aegilops tauschii): 80 to 100%
- Herbicidal activity (inhibition rate class), Alopecurus japonicus (Alopecurus japonicus; Dosage 240 g a.i./ha): A (A indicates that the inhibition rate was greater than or equal to 80% to 100%)
- Herbicidal activity (inhibition rate class), Alopecurus myosuroides (Alopecurus myosuroides; Dosage 240 g a.i./ha): A (A indicates that the inhibition rate was greater than or equal to 80% to 100%)
- inhibition at 120 g/ha (Cyperus iria): 80 to 100%
- inhibition at 120 g/ha (Digitaria sanguinalis): 60 to 80%
- Herbicidal activity (inhibition rate class), Eleusine indica (Eleusine indica; Dosage 240 g a.i./ha): A (A indicates that the inhibition rate was greater than or equal to 80% to 100%)
- Herbicidal activity (inhibition rate class), Leptochloa chinensis (Leptochloa chinensis; Dosage 240 g a.i./ha): A (A indicates that the inhibition rate was greater than or equal to 80% to 100%)
- Herbicidal activity (inhibition rate class), Lolium multiflorum (Lolium multiflorum; Dosage 240 g a.i./ha): A (A indicates that the inhibition rate was greater than or equal to 80% to 100%)

SMILES: COC(=O)[C@H]1C[C@@H](NC(=O)C2(C)CC(c3cc(F)cc(OC(F)(F)F)c3)=NO2)CO1 (mixture of isomers) [I-380]
- inhibition at 120 g/ha (Aegilops tauschii): 80 to 100%
- Herbicidal activities, Alopecurus japonicus (inhibition rate class) (Alopecurus japonicus; Dosage 240 g a.i./ha): A (A indicates that the inhibition rate was greater than or equal to 80% to 100%)
- Herbicidal activities, Alopecurus myosuroides (inhibition rate class) (Alopecurus myosuroides; Dosage 240 g a.i./ha): A (A indicates that the inhibition rate was greater than or equal to 80% to 100%)
- inhibition at 120 g/ha (Cyperus iria): 80 to 100%
- inhibition at 120 g/ha (Digitaria sanguinalis): 80 to 100%
- Herbicidal activities, Leptochloa chinensis (inhibition rate class) (Leptochloa chinensis; Dosage 240 g a.i./ha): A (A indicates that the inhibition rate was greater than or equal to 80% to 100%)
- Herbicidal activities, Lolium multiflorum (inhibition rate class) (Lolium multiflorum; Dosage 240 g a.i./ha): A (A indicates that the inhibition rate was greater than or equal to 80% to 100%)

SMILES: COC(=O)C1CC(NC(=O)C2(C)CC(c3cc(F)cc(OC(F)F)c3)=NO2)CO1 (stereo not drawn) [I-385]
- inhibition at 120 g/ha (Aegilops tauschii): 80 to 100%
- Herbicidal activities, Alopecurus japonicus (inhibition rate class) (Alopecurus japonicus; Dosage 240 g a.i./ha): A (A indicates that the inhibition rate was greater than or equal to 80% to 100%)
- Herbicidal activities, Alopecurus myosuroides (inhibition rate class) (Alopecurus myosuroides; Dosage 240 g a.i./ha): A (A indicates that the inhibition rate was greater than or equal to 80% to 100%)
- inhibition at 120 g/ha (Digitaria sanguinalis): 60 to 80%
- Herbicidal activities, Leptochloa chinensis (inhibition rate class) (Leptochloa chinensis; Dosage 240 g a.i./ha): A (A indicates that the inhibition rate was greater than or equal to 80% to 100%)
- Herbicidal activities, Lolium multiflorum (inhibition rate class) (Lolium multiflorum; Dosage 240 g a.i./ha): B (B indicates that the inhibition rate was greater than or equal to 60% to less than 80%)

SMILES: COC(=O)C1CC(NC(=O)C2(C(F)(F)F)CC(c3cc(F)cc(OC(F)F)c3)=NO2)CO1 (stereo not drawn) [I-394]
- inhibition at 120 g/ha (Aegilops tauschii): 80 to 100%
- Herbicidal activities, Alopecurus japonicus (inhibition rate class) (Alopecurus japonicus; Dosage 240 g a.i./ha): A (A indicates that the inhibition rate was greater than or equal to 80% to 100%)
- Herbicidal activities, Alopecurus myosuroides (inhibition rate class) (Alopecurus myosuroides; Dosage 240 g a.i./ha): A (A indicates that the inhibition rate was greater than or equal to 80% to 100%)
- inhibition at 120 g/ha (Digitaria sanguinalis): 60 to 80%
- inhibition at 120 g/ha (Eclipta prostrata): 60 to 80%
- Herbicidal activities, Leptochloa chinensis (inhibition rate class) (Leptochloa chinensis; Dosage 240 g a.i./ha): A (A indicates that the inhibition rate was greater than or equal to 80% to 100%)
- Herbicidal activities, Lolium multiflorum (inhibition rate class) (Lolium multiflorum; Dosage 240 g a.i./ha): A (A indicates that the inhibition rate was greater than or equal to 80% to 100%)

SMILES: C=C[C@]1(C(=O)N[C@H]2C[C@@H](C(=O)OCC(F)(F)F)C2)CC(c2cc(F)cc(F)c2)=NO1 [I-15]
- inhibition at 60 g/ha (Aegilops tauschii): 80 to 100%
- Herbicidal activities, Alopecurus japonicus (inhibition rate class) (Alopecurus japonicus; Dosage 120 g a.i./ha): A (A indicates that the inhibition rate was greater than or equal to 80% to 100%)
- Herbicidal activities, Alopecurus myosuroides (inhibition rate class) (Alopecurus myosuroides; Dosage 120 g a.i./ha): A (A indicates that the inhibition rate was greater than or equal to 80% to 100%)
- inhibition at 60 g/ha (Digitaria sanguinalis): 60 to 80%
- Herbicidal activities, Eleusine indica (inhibition rate class) (Eleusine indica): A (A indicates that the inhibition rate was greater than or equal to 80% to 100%)
- Herbicidal activities, Leptochloa chinensis (inhibition rate class) (Leptochloa chinensis; Dosage 120 g a.i./ha): A (A indicates that the inhibition rate was greater than or equal to 80% to 100%)
- Herbicidal activities, Lolium multiflorum (inhibition rate class) (Lolium multiflorum; Dosage 120 g a.i./ha): A (A indicates that the inhibition rate was greater than or equal to 80% to 100%)

SMILES: CC1(C(=O)NC2COC(C(=O)OCCS(C)(=O)=O)C2)CC(c2cc(F)cc(OC(F)(F)F)c2)=NO1 (stereo not drawn) [I-384]
- inhibition at 120 g/ha (Aegilops tauschii): 80 to 100%
- Herbicidal activities, Alopecurus japonicus (inhibition rate class) (Alopecurus japonicus; Dosage 240 g a.i./ha): A (A indicates that the inhibition rate was greater than or equal to 80% to 100%)
- Herbicidal activities, Alopecurus myosuroides (inhibition rate class) (Alopecurus myosuroides; Dosage 240 g a.i./ha): A (A indicates that the inhibition rate was greater than or equal to 80% to 100%)
- inhibition at 120 g/ha (Cyperus iria): 60 to 80%
- inhibition at 120 g/ha (Digitaria sanguinalis): 80 to 100%
- Herbicidal activities, Leptochloa chinensis (inhibition rate class) (Leptochloa chinensis; Dosage 240 g a.i./ha): A (A indicates that the inhibition rate was greater than or equal to 80% to 100%)
- Herbicidal activities, Lolium multiflorum (inhibition rate class) (Lolium multiflorum; Dosage 240 g a.i./ha): A (A indicates that the inhibition rate was greater than or equal to 80% to 100%)

SMILES: CSCCOC(=O)C1CC(NC(=O)C2(C)CC(c3cc(F)cc(OC(F)(F)F)c3)=NO2)CO1 (stereo not drawn) [I-382]
- inhibition at 120 g/ha (Aegilops tauschii): 80 to 100%
- Herbicidal activities, Alopecurus japonicus (inhibition rate class) (Alopecurus japonicus; Dosage 240 g a.i./ha): A (A indicates that the inhibition rate was greater than or equal to 80% to 100%)
- Herbicidal activities, Alopecurus myosuroides (inhibition rate class) (Alopecurus myosuroides; Dosage 240 g a.i./ha): A (A indicates that the inhibition rate was greater than or equal to 80% to 100%)
- inhibition at 120 g/ha (Cyperus iria): 80 to 100%
- inhibition at 120 g/ha (Digitaria sanguinalis): 80 to 100%
- Herbicidal activities, Leptochloa chinensis (inhibition rate class) (Leptochloa chinensis; Dosage 240 g a.i./ha): A (A indicates that the inhibition rate was greater than or equal to 80% to 100%)
- Herbicidal activities, Lolium multiflorum (inhibition rate class) (Lolium multiflorum; Dosage 240 g a.i./ha): A (A indicates that the inhibition rate was greater than or equal to 80% to 100%)

SMILES: C[S+]([O-])CCOC(=O)C1CC(NC(=O)C2(C)CC(c3cc(F)cc(OC(F)(F)F)c3)=NO2)CO1 (stereo not drawn) [I-383]
- inhibition at 120 g/ha (Aegilops tauschii): 80 to 100%
- Herbicidal activities, Alopecurus japonicus (inhibition rate class) (Alopecurus japonicus; Dosage 240 g a.i./ha): A (A indicates that the inhibition rate was greater than or equal to 80% to 100%)
- Herbicidal activities, Alopecurus myosuroides (inhibition rate class) (Alopecurus myosuroides; Dosage 240 g a.i./ha): A (A indicates that the inhibition rate was greater than or equal to 80% to 100%)
- inhibition at 120 g/ha (Cyperus iria): 60 to 80%
- inhibition at 120 g/ha (Digitaria sanguinalis): 80 to 100%
- Herbicidal activities, Leptochloa chinensis (inhibition rate class) (Leptochloa chinensis; Dosage 240 g a.i./ha): A (A indicates that the inhibition rate was greater than or equal to 80% to 100%)
- Herbicidal activities, Lolium multiflorum (inhibition rate class) (Lolium multiflorum; Dosage 240 g a.i./ha): A (A indicates that the inhibition rate was greater than or equal to 80% to 100%)
